Test results taken from patent publication US20230303712A1, “METHODS OF TREATING GLIOBLASTOMA” (Ramot at Tel-Aviv University Ltd., priority 2020, published 2023).
Entries after “also recorded” stand apart in the source; their conditions may differ.

Key:
[1] = system: human GB cells (PD-GB4, U251, PD-GB 1, PD-GB3); test: 3D spheroid invasion in Matrigel, human GB cells co-cultured with human microglia; assay type: cell-based
Description: Tumor spheroids. Tumor spheroids were prepared from mCherry/iRFP/GFP-labeled patient-derived, human U251 or murine GB cells (GL261, iAGR53, PNp53, EGFRviii-shP16), either alone or co-cultured with unlabeled primary human/murine microglia (4:1 ratio), using our modified hanging-drop method, as we previously described. For assessment of cell invasion, GB spheroids (4,000 cells/sphere) were embedded in Matrigel (Corning), seeded in a 96-well plate, and incubated with complete DMEM or complete DMEM supplemented with SELPi (0.5 µM). […] For FACS analysis, GB spheroids (8,000 cells/sphere) were embedded in Matrigel, seeded in a 12-well plate, and treated with complete DMEM, 0% serum microglia medium or microglia CM for 24-48 h. Cells were then recovered using Cell Recovery Solution (Corning) and further analyzed by FACS.

[2] = system: U251 and PD-GB4 GB cells; test: In vitro cytotoxicity of SELPi (annexin-FITC/PI apoptosis-necrosis staining); assay type: cell-based, human
Description: Flow cytometry. For flow cytometry assays, cells were harvested using a cell scraper, and were then washed with PBS followed by additional washes with PBS supplemented with 1% BSA and 5 mM EDTA (FACS buffer). Tumor spheroids were recovered from Matrigel using Cell Recovery Solution (Corning) and washed with FACS buffer. To validate the purity of the microglia preparations, CD11b isolated cells or human microglia were incubated with TMEM119 and P2Y12-labeled antibodies for 1 h. For human TMEM119, primary antibody was unlabeled and cells were washed and incubated with secondary, Alexa 488 conjugated antibody. To assess P-Selectin and PSGL-1 expression, GB cells and microglia were seeded alone, co-cultured in a 2D petri dish, or grown as spheroids seeded in Matrigel. Cells were treated with control medium or CM for 48 h. They were then incubated with mouse anti-human P-Selectin antibody for 1 h on ice, and then were washed, and incubated with Alexa-488 labeled anti-mouse IgG binding protein for 1 h on ice. Alternatively, cells were incubated with rat anti-human PSGL antibody, and then were washed, and incubated with goat anti-rat, Alexa-488 labeled antibody for 1 h on ice. […] Fluorescence intensity was assessed using either an Attune flow cytometer (Life Technologies) or a Gallios™ flow cytometer (Beckman Coulter, USA) and the results were analyzed by Kaluza software (Beckman Coulter, USA).

[3] = system: primary human microglia; test: Nitric oxide secretion evaluation; assay type: cell-based; details: added to rSELP; SELPi 0.5 µM, antibodies 2.5 µg/ml, 24 h
Description: Nitric oxide secretion evaluation. Primary human/murine microglia (1 × 10^5 cells/ml) were seeded in PLL-coated plates. Twenty-four hours post-seeding, cells were treated with: 0% serum DMEM, 0% serum DMEM supplemented rSELP (1.5 µg/ml), 0% serum DMEM exposed to rSELP and SELPi (0.5 µM), 0% serum DMEM exposed to rSELP and anti-PSGL-1 neutralizing antibody (2.5 µg/ml), 0% serum DMEM exposed to rSELP and anti-CD44 neutralizing antibody (2.5 µg/ml), or 0% serum DMEM exposed to rSELP and anti-CD24 neutralizing antibody (2.5 µg/ml) for 24 h. Alternatively, macrophages were seeded in 96 well plates (5 × 10^5 cells/ml) treated with macrophages medium, macrophages medium supplemented with rSELP (3.5 µg/ml), macrophages medium supplemented with rSELP and SELPi (0.5 µM), macrophages medium supplemented with rSELP and anti-PSGL-1 neutralizing antibody (2.5 µg/ml), macrophages medium supplemented with rSELP and anti-CD44 neutralizing antibody (2.5 µg/ml) or macrophages medium supplemented with rSELP and anti-CD24 neutralizing antibody (2.5 µg/ml) for 24 h. Medium was then collected for evaluation of nitrite levels by the Total Nitric Oxide and Nitrate/Nitrite Parameter Assay Kit. Optical density was measured by a SpectraMax M5e multi-detection microplate reader system (Molecular Devices).

[4] = system: primary human microglia; test: Real-time PCR gene expression (ARG1, iNOS, IL-10, TGF-β) in microglia treated with rSELP; assay type: cell-based; details: added on top of rSELP; SELPi 0.5 µM, antibodies 2.5 µg/ml, 48 h
Description: To evaluate microglial expression of IL-10 TGF-β, ARG1 and iNOS by primary human microglia (1 × 10^6 cells), cells were seeded in PLL-coated plates. Twenty-four hours post-seeding cells were treated with: 0% serum DMEM alone, or exposed to rSELP (1.5 µg/ml), or exposed to rSELP and SELPi (0.5 µM), or exposed to rSELP and anti-PSGL-1 neutralizing antibody (2.5 µg/ml), or exposed to rSELP and anti-CD44 neutralizing antibody (2.5 µg/ml), or exposed to rSELP and anti-CD24 neutralizing antibody (2.5 µg/ml) for 48 h.
Real-time PCR. The expression level of target genes was assessed by SYBR green real-time PCR (StepOne plus, Life Technologies) and normalized to GAPDH housekeeping gene. Primers used were: […]

Q: For COc1ccc(C2CC(c3c(O)cc(C)oc3=O)=NCCS2)c(OC)c1 (stereo not drawn) [SELPi, 3-[7-(2,4-Dimethoxyphenyl)-2,3,6,7-tetrahydro-1,4-thiazepin-5-yl]-4-hydroxy-6-methyl-2H-pyran-2-one], which 3D spheroid invasion ([1]; PD-GB4 GB cells with human microglia, 0.5 µM SELPi or SELP knockdown, 72 h) is on record?
A: reduced invasion

Q: What about the “3D spheroid invasion, further human GB models” value ([1]; human U251, PD-GB 1, PD-GB3) of the same molecule?
A: effect of SELPi on GB spheroids was observed

Q: And the toxicity ([2]; 0.5 µM SELPi (working concentration))?
A: no toxicity was observed

Q: And the “percentage of apoptotic cells” value ([2]; 5 and 10 µM SELPi, 72 h)?
A: slight increase in the percentage of apoptotic cells

Q: What about the “restoration of NO levels” value [3] of the same molecule?
A: restored

Q: What about the “rescue of rSELP effects on ARG1, iNOS, IL-10, TGF-β expression” value [4] of the same molecule?
A: rescue the effects of rSELP; also recorded: rescued rSELP effects
